Assay [1] deals with HeLa (cervical adenocarcinoma) cells. The assay can be described thus: Cell viability IC50 (Table 3). The class given is cell-based, human. As to the method: (§1) To date, 30 variants with different structural modifications have been made. […] In particular, it is shown that C75 causes death in multiple cancer cells with IC50 values in the 100-400 nM range, including breast cancers (MCF7, BT549), lung cancer (A549), colorectal cancer (HCT116) in addition to HeLa cells (cervical cancer).

Assay [2] concerns A549 cells. Description: IC50 of derivatives (Table 5). The class given is cell-based, human. Conditions: for IC50: Table 5, cell line only named in b213 (A549).
The test system of assay [3] is MCF7, BT549, A549, HCT116, HeLa cells. The assay can be described thus: Viability in cancer vs non-cancer cell lines, summary of Table 3. In kind it is cell-based, human. The procedure: as §1
The test system of assay [4] is A549 cells. The assay can be described thus: Spindle morphology, DAPI and tubulin staining. In kind it is cell-based, human. Conditions: 300 nM, 4 hours. The procedure: FIG. 1A) is a line graph showing changes in the percentage of viable HFF-1, HeLa, A549 and HCT 116 cells after treatment with a range of C75 concentrations for 3 population doubling times (N=3). […] FIG. 1C) is a line graph showing the percentage of HeLa and HFF1 cells in mitosis after treatment with various concentrations of C75 for 8 hours. The bars indicate standard deviation. FIG. 1D) is a series of images showing cells that were fixed and co-stained for tubulin (microtubules) and DAPI (DNA). […] The scale bar for the cells is 10 μm. […] FIG. 1F) is a cartoon schematic showing the key features of a metaphase cell.

The test system of a further assay is HCT116 spheroids. The assay can be described thus: Multicellular tumour spheroids. The class given is cell-based. To be noted: 10 nM paclitaxel or 250 nM C75 alone, 6 days. The procedure:
FIGS. 5A, 5B, 5C, 5D, 5E, 5F, 5G, 5H, 5I, 5J, 5K, 5L and 5M show how C75 disrupts or reduces the growth of HeLa, HCT116 and A549 spheroids. FIG. 5A) images show HeLa spheroids over time (3 days) before and after treatment with control (1 μM C87; n=10), 250 nM (n=6) or 500 nM (n=10) of C75. The scale bar is 100 μm. FIG. 5B) is a series images of HeLa spheroids after three days of treatment with control (500 nM C87) or 500 nM C75. The spheroids were stained for fluorescein diacetate (to detect live cells) and propidium iodide (to detect dead cells). […] The scale bar is 100 μm. FIG. 5C) is a line graph showing the change in spheroid area (μm^2) for each day and treatment as indicated. Bars show standard deviation and the asterisks are p<0.05 as determined by the student's t test. FIG. 5D) images show HeLa spheroids over 3 days before and after treatment with empty nanoparticles (control; n=3) or 250 nM of nanoparticle-encapsulated C75 (n=3). The scale bar is 100 μm. […] Bars show standard deviation and the asterisks are p<0.05 as determined by the student's t test. FIG. 5F) is a series of images of HCT116 spheroids treated with control (1 μM C87; n=10), 500 nM C75 (n=10) and 1 μM C75 (n=10). FIG. 5G) is a series images of HCT116 spheroids after six days of treatment with control (1 μM C87) or 1 μM C75. The spheroids were stained for fluorescein diacetate (live cells) and propidium iodide (dead cells). […] FIG. 5H) is a line graph showing the growth in surface area (%) of HCT116 spheroids treated with control (1 μM C87), 500 nM C75 and 1 μM C75 after six days. FIG. 5I) is a series of images of A549 spheroids treated with control (1 μM C87, n=6), 500 nM C75 (n=6), and 1 μM C75 (n=6) over 5 days. The scale bar is 100 μm. FIG. 5J) is a series of images of A549 spheroids after six days of treatment with control (750 nM C87) or 1 μM C75. The spheroids were stained for fluorescein diacetate (live cells) and propidium iodide (dead cells). […] Bars show standard deviation and the asterisks are p<0.05 as determined by the student's t test. FIG. 5L) images show A549 spheroids over 6 days before and after treatment with empty nanoparticles (control; n=3) or 500 nM of nanoparticle-encapsulated C75 (n=3). The scale bar is 100 μm. […] Bars show standard deviation and the asterisks are p<0.05 as determined by the student's t test.
FIG. 11A) is a series of images of HCT116 spheroids treated with control (DMSO), 10 nM paclitaxel, 250 nM C75 or both for 6 days. […] The scale bar for the images is 100 μm. […] As shown in the images, adding paclitaxel and C75 in combination led to regression in spheroid size compared to each treatment on its own.
The thienoisoquinoline compounds may also have potential for use in combinatorial therapies. […]

In the case of `Cc1cccc(S(=O)(=O)N2Cc3ccccc3-c3sccc32)c1` [Compound C39], the IC50 (in assay [1]; in the assay on A549 cells [2]) was above 1 µM in each case. For `Cc1ccc(S(=O)(=O)N2Cc3ccccc3-c3sc(-c4ccccc4)cc32)cc1` [Compound C71], the IC50 (in assay [1]; with A549 cells [2]) was above 1 µM throughout. For the compound `Cc1ccc(S(=O)(=O)N2Cc3ccccc3-c3sc(Br)cc32)cc1` [Compound C74], the IC50 (in assay [1]; in the assay with A549 cells [2]) was above 1 µM in each case. For the compound `Cc1ccc(S(=O)(=O)N2Cc3ccccc3-c3sccc32)cc1` [Compound C91], in assay [3], the “efficacy (effect on viability) in cancer cells vs. non-cancer cells” value is “higher efficacy”. This compound also had an IC50 in the assay on A549 cells [2] (Homo sapiens) above 1 µM. `Cc1cccc(S(=O)(=O)N2Cc3ccccc3-c3sc(Br)cc32)c1` [Compound C93]: the concentration for half-maximal inhibition (IC50) in assay [1] was above 1 µM. Consider `O=S(=O)(c1ccc(C(F)(F)F)cc1)N1Cc2ccccc2-c2sccc21` [Compound C108], for which the half-maximal inhibitory concentration (IC50) (in assay [1]; in the assay on A549 cells [2]) was above 1 µM throughout. `CC(C)(C)c1ccc(S(=O)(=O)N2Cc3ccccc3-c3sccc32)cc1` [Compound C109] displayed an IC50 in the assay with A549 cells [2] above 1 µM. The same measure, in the same setting: next, `COc1ccc(S(=O)(=O)N2Cc3ccccc3-c3scc(C)c32)cc1` [Compound C127]: 0.635 µM. Still for that read-out and setting: the value for `COc1ccc(S(=O)(=O)N2Cc3ccccc3-c3sc(Cl)c(C)c32)cc1` [Compound C128] was 0.549 µM.

In the case of `COc1ccc(S(=O)(=O)N2Cc3cccc([N+](=O)[O-])c3-c3sccc32)cc1` [Compound C130], half-maximal inhibition in the assay with A549 cells [2] (IC50) required 0.439 µM. The IC50 values of the last two compounds are within 1.5-fold of each other. On the same count and under the same terms, the value for `COc1ccc(S(=O)(=O)N2Cc3cccc([N+](=O)[O-])c3-c3sc(Br)cc32)cc1` [Compound C131] was 0.801 µM. In the case of `COc1ccc(S(=O)(=O)N2Cc3cccc(N)c3-c3sccc32)cc1` [Compound C132], the IC50 with A549 cells [2] is above 1 µM. Still for that read-out and setting: next, `COc1ccc(S(=O)(=O)N2Cc3c(Br)ccc(N)c3-c3sc(Br)cc32)cc1` [Compound C133]: above 1 µM; `COc1ccc(S(=O)(=O)N2Cc3ccccc3-c3sc(C=O)c(C)c32)cc1` [Compound C138]: 0.416 µM.

In turn, `COc1ccc(S(=O)(=O)N2Cc3ccccc3-c3sc(Br)c(C)c32)cc1` [Compound C139] had an IC50 in the assay on A549 cells [2] above 1 µM.

In the case of `COc1ccc(S(=O)(=O)N2Cc3ccccc3-c3sc(C=O)cc32)cc1` [Compound C140], in the assay on A549 cells [2] (A549 cells), the “efficacy relative to C75” value is “higher efficacy”. Moreover, half-maximal inhibition in the assay with A549 cells [2] (IC50) required 0.26 µM. Also, in the assay with A549 cells [4], the spindle phenotype entry is on record as “causes spindle phenotypes similar to C75”.

For the compound `COc1ccc(S(=O)(=O)N2Cc3ccccc3-c3sc(C(=O)O)cc32)cc1` [Compound C141], in the assay with A549 cells [2], the IC50 was above 1 µM. On the same count and under the same terms, next, `Cc1ccc(S(=O)(=O)N2Cc3ccccc3-c3sc(C=O)cc32)cc1` [Compound C142]: 0.456 µM; `Cc1ccc(S(=O)(=O)N2Cc3ccccc3-c3sc(C(=O)O)cc32)cc1` [Compound C143]: above 1 µM. Take `O=S(=O)(c1ccc(C(F)(F)F)cc1)N1Cc2ccccc2-c2sc(Br)cc21` [Compound C200]: the IC50 (in assay [1]; with A549 cells [2]) was above 1 µM each time. As for `CC(C)(C)c1ccc(S(=O)(=O)N2Cc3ccccc3-c3sc(Br)cc32)cc1` [Compound C201], the IC50 (in assay [1]; in the assay with A549 cells [2]) was above 1 µM throughout.

On to `COc1ccc(S(=O)(=O)N2Cc3ccccc3-c3sc(Cl)cc32)cc1` [Compound C208], for which the IC50 turned out to be 0.204 µM in assay [1] and 0.434 µM in the assay on A549 cells [2]. In the assay on A549 cells [2], `COc1ccc(S(=O)(=O)N2Cc3cc4c(cc3-c3sccc32)OCO4)cc1` [Compound C300] came in with an IC50 above 1 µM.

`COc1ccc(S(=O)(=O)N2Cc3cc4c(cc3-c3sc(Br)cc32)OCO4)cc1` [Compound C301] gave an IC50 in the assay on A549 cells [2] above 1 µM. For the compound `CC(=O)O[C@H]1C(=O)[C@@]2(C)[C@H]([C@H](OC(=O)c3ccccc3)[C@]3(O)C[C@H](OC(=O)[C@H](O)[C@@H](NC(=O)c4ccccc4)c4ccccc4)C(C)=C1C3(C)C)[C@]1(OC(C)=O)CO[C@@H]1C[C@@H]2O` [paclitaxel, reference compound], in the assay with HCT116 spheroids, the “spheroid growth, single drug” value is recorded as “failed to grow”.

For the origin of these results see patent US20200276181A1, “THIENOISOQUINOLINES AND THEIR DERIVATIVES FOR TARGETING TUBULIN, CH-TOG, AURORA A KINASE, TPX2, CDK5RAP2 AND/OR ASPM” (VALORBEC, SEC, priority 2017, published 2020).
